Where two headings read alike, the source gives them in different places.
Tests used:
[1] = Antiproliferative IC50 of paclitaxel, doxorubicin and combination, in solution or in magnetic nanoparticles
[2] = Drug loading in magnetic nanoparticles; format: physicochemical; details: for Total Drug Loading (Mean ± SEM): total drug added 10.0 % w/w, n = 2 or 3
Protocol: For incorporation in nanoparticles, hydrochloride salt of the drug (DOX.HCl) was converted to water-insoluble base (DOX) using established methods (Yolles, et al. (1978) Acta Pharm. Suec. 15:382-388). […] Stirring was continued overnight (˜16 hours) to allow partitioning of the drug into the oleic acid shell surrounding iron-oxide nanoparticles. Drug-loaded nanoparticles were separated from the unentrapped drug using a magnet (12200 Gauss; Edmund Scientific, Tonawanda, N.Y.). Nanoparticles were washed twice by re-suspending in distilled water and separated using a magnetic field. […] For drug extraction, 2 mL of 12.5% volume/volume methanolic solution in chloroform was added to the dried sample. The samples were shaken for 24 hours (Environ shaker, model no. 3527; Lab-Line Instruments, Melrose Park, Ill.). Since DOX has greater solubility in this combination of solvents than in methanol or chloroform alone, it was used for the extraction. Nanoparticles were centrifuged for 10 minutes at 16,000 g using an EPPENDORF® microcentrifuge (5417R; Eppendorf-Netheler-Hinz-GmbH, Hamburg, Germany). […] VARIAN® Inc., Walnut Creek, Calif.) at λex=485 nm and λem=591 nm. A standard plot was prepared under identical conditions to calculate the amount of drug loaded in the nanoparticles. There was no further increase in the amount of drug extracted when nanoparticles were kept for extraction for more than 24 hours. […] The cap was removed and ethanol was allowed to evaporate overnight. Magnetite nanoparticles were separated from the free drug using a magnetic field and particles were washed two times with distilled water.

MCF-7 cells = test: Confocal laser scanning microscopy of drug uptake and localization; format: cell-based; details: 2 hours of incubation
Protocol: MCF-7 cells were seeded in Bioptechs plates (Bioptechs, Butler, Pa.) at 50,000 cells/plate in 1 mL serum-containing medium 24 hours prior to the experiment. A dispersion of drug-loaded or void nanoparticles and drug solution (10 μM) were prepared in cell-culture medium as described herein. […] Cells were washed three times with PBS before imaging them under a confocal microscope (Zeiss Confocal microscope LSM410 equipped with argon-krypton laser; Zeiss, Thornwood, N.Y.) at λex=488 nm and a long-pass filter with a cut-on filter of 515 nm for detecting the emission light.

Row | Paclitaxel Loaded ([2]; added paclitaxel 5.0 % w/w + doxorubicin 5.0 % w/w) [% w/w] | Paclitaxel Loaded ([2]; added paclitaxel 10.0 % w/w, doxorubicin 0.0) [% w/w] | Total Drug Loading (Mean ± SEM) [2] [% w/w] | Doxorubicin Loaded ([2]; added doxorubicin 5.0 % w/w + paclitaxel 5.0 % w/w) [% w/w] | Doxorubicin Loaded ([2]; added doxorubicin 10.0 % w/w, paclitaxel 0.0) [% w/w] | Compound | IC50 ([1]; read-out: IC50 Nanoparticle) [µg/mL] | IC50 ([1]; read-out: IC50 Soluble) [µg/mL] | intracellular localization of drug (MCF-7 cells)
1 | 4.8 | 9.5 | 9.5 |  |  | CC(=O)O[C@H]1C(=O)[C@@]2(C)[C@H]([C@H](OC(=O)c3ccccc3)[C@]3(O)C[C@H](OC(=O)[C@H](O)[C@@H](NC(=O)c4ccccc4)c4ccccc4)C(C)=C1C3(C)C)[C@]1(OC(C)=O)CO[C@@H]1C[C@@H]2O [Paclitaxel] | 0.0106 ± 0.0006 | 0.0098 ± 0.0005 | 
2 |  |  | 8.2 | 3.7 | 8.2 | COc1cccc2c1C(=O)c1c(O)c3c(c(O)c1C2=O)C[C@@](O)(C(=O)CO)C[C@@H]3O[C@H]1C[C@H](N)[C@H](O)[C@H](C)O1 [Doxorubicin] | 0.795 ± 0.177 | 0.103 ± 0.0178 | nuclear localization
